Data from patent publication US6696441B1, “Inhibition of p53-induced stress response” (The Regents of the University of California, priority 2000, dated 2004).

Assays:
[1] = Cyclization of PFT-α to IBT in DMSO stock diluted with water, reversed phase HPLC at 25° C. over time; type: physicochemical
Experimental: (§1) The preparation of PFT-α was accomplished as shown in Scheme 1 by reacting 4-methyl-2-bromoacetophenone with 2-amino-4,5,6,7-tetrahydro-benzothiazole. Upon recrystallization of the PFT-α from isopropyl alcohol, it was noticed that PFT-α readily ring-closed completely to the imidazo[2,1-b]benzothiazole (IBT). Therefore, a subsequent investigation was undertaken to study the propensity of PFT-α to ring-close in protic solvents. […] Thus, PFT-α was dissolved in DMSO and water dilutions were made from this stock.

[2] = Ring closure of PFT-α in protic solvents at room temperature; type: physicochemical
Experimental: as §1

mice = conditions: cited from earlier work
[3] = test system: Chronic lymphocytic leukemia [CLL] cells; test: Protection against spontaneous apoptosis and apoptosis induced by fludarabine (PI negative and DiOC6 high cells by FACS); type: cell-based, human; conditions: one micromolar, 3 days culture, FIG. 2; for effect on untreated CLL cells (spontaneous apoptosis): PI negative and DiOC6 high cells
Description: (§2) The malignant lymphocytes from two patients with chronic lymphocytic leukemia [CLL] were isolated by ficoll-hypaque sedimentation and suspended at a density of 1 million cells per milliliter in RPMI 1640 medium supplemented with 10% fetal bovine serum. Two hundred microliter aliquots of cells were dispersed in the wells of culture plates containing the indicated final concentrations of either PFT-α (“PFT-open”) or IBT (PFT-closed). After 3 days culture, viable cells were enumerated by fluorescence-activated cell sorting [FACS] after staining with propidium iodide [PI]. Viable cells excluded the dye [open circles]. In addition, cell metabolism was assessed by the ability of the cells to […] the tetrazolium dye MTT [closed squares].
Chronic lymphocytic leukemia [CLL] cells were cultured for 3 days as described in Example 2. Some of the cultures were supplemented with one micromolar of PFT-open or PFT-closed, as indicated. In the experiment shown in the bottom panel of FIG. 2, some of the cultures also contained the cytotoxic adenine nucleoside analog fludarabine [abbreviated F-AraA]. Fludarabine is the first line treatment for CLL, and the toxicity of the drug is dependent upon the p53 pathway. To assess healthy, viable cells, staining was done with both PI, as indicated in Example 2, and with the mitochondrial dye DiOC6. Cells that were both PI negative and DIOC6 high were enumerated by FACS.

[4] = test system: malignant lymphocytes from two patients with chronic lymphocytic leukemia [CLL]; test: Effect on B-CLL viability (PI exclusion by FACS, MTT); type: cell-based, human; conditions: 3 days culture; viable cells by PI FACS and MTT; concentrations up to 100 micromolar; FIG. 1
Description: as §2

[5] = nmr time course of PFT-α in DMSO-d6; type: physicochemical; conditions: time course in DMSO-d6, proton nmr

SMILES	% cyclized to IBT ([1]; Time 0 h) [%]	% cyclized to IBT ([1]; Time 18 h) [%]	% cyclized to IBT ([1]; Time 48 h) [%]	propensity to ring-close in protic solvents [2]	protection from lethal genotoxic stress (mice; 6-8 Gy of gamma radiation)	promotion of tumor formation (mice)	effect on untreated CLL cells (spontaneous apoptosis) [3]	CLL survival / toxicity [4]	conversion of PFT-α to IBT [5]	protective effect on CLL cells treated with F-AraA (fludarabine) ([3]; with F-AraA, compared with PFT-α)
Cc1ccc(C(=O)Cn2c3c(sc2=N)CCCC3)cc1 [PFT-α]	5	28	42	begins cyclizing at room temperature immediately upon dissolution in protic solvents	protected mice from lethal genotoxic stress	without itself promoting the formation of tumors	nearly equivalent effects	dose-dependently reduced CLL survival	spontaneous conversion of PFT-α to IBT	
Cc1ccc(-c2cn3c4c(sc3n2)CCCC4)cc1 [IBT]							nearly equivalent effects	non-toxic		less protective effects
